# Key:
# HL-60 (TB) = assay: NCI60 five-dose screen; type: cell-based; details: Homo sapiens, leukemia; for CC50: read-out: LC50 (the source's name)
# SR = assay: NCI60 five-dose screen; type: cell-based; details: Homo sapiens, leukemia; for CC50: read-out: LC50 (the source's name)
# NCI-H23 = assay: NCI60 five-dose screen; type: cell-based; details: Homo sapiens, NCI-H23, NSC lung cancer; for CC50: read-out: LC50 (the source's name)
# HCC-2998 = assay: NCI60 five-dose screen; type: cell-based; details: Homo sapiens, HCC-2998, colon cancer; for CC50: read-out: LC50 (the source's name)
# SF-295 = assay: NCI60 five-dose screen; type: cell-based; details: Homo sapiens, SF-295, CNS cancer; for CC50: read-out: LC50 (the source's name)
# T-47D = assay: NCI60 five-dose screen; type: cell-based; details: Homo sapiens, T47D, breast cancer; for CC50: read-out: LC50 (the source's name)
# porcine brain tubulin = biological target: T1, porcine brain tubulin (Sus scrofa, UniProt P02550+P02554); assay: Tubulin polymerisation assay (fluorescence-based); type: biochemical; details: 10 µM, 37 °C
# T1 construct: a solution containing porcine brain tubulin (2 mg mL^−1); purchased Cytoskeleton BK011P; host or cells: porcine brain (tissue-purified)
# Method: The tubulin polymerisation experimental protocol followed the method described in this literature.[28] The experimental was using fluorescence-based assay kit (Cytoskeleton, catalog no. BK011P). In Brief, 5 µL of test compounds was added to a 96-well plate, then mix with 50 µL of a solution containing porcine brain tubulin (2 mg mL^−1) in buffer with 20% glycerol and 1 mM GTP. A microplate reader (Varioskan™ LUX multimode microplate reader, Thermo Scientific™) was used to measure fluorescence intensity every 60 seconds for 60 minutes, with excitation at 360 nm and emission at 450 nm, maintained at 37 °C throughout the experiment.
# [1] = tested on: NCI60 human cancer cell line panel; assay: NCI60 five-dose screen, ranges over the panel; type: cell-based; details: five-dose experiment, all cell lines, read-out: GI50 values (range over the panel)
# T1 sequence (P02554 whole entry): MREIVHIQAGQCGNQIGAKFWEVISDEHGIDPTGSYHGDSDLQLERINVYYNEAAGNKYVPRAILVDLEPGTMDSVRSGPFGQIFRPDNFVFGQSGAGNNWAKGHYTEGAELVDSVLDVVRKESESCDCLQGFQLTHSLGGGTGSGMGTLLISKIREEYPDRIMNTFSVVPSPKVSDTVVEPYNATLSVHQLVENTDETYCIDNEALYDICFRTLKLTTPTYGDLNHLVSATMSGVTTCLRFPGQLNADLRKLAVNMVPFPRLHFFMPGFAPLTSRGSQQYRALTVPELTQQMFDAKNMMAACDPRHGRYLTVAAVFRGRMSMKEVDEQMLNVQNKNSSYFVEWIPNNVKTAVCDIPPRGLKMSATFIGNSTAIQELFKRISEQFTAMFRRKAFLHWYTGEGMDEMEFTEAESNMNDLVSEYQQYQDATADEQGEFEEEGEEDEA
# T1 sequence (P02550 whole entry): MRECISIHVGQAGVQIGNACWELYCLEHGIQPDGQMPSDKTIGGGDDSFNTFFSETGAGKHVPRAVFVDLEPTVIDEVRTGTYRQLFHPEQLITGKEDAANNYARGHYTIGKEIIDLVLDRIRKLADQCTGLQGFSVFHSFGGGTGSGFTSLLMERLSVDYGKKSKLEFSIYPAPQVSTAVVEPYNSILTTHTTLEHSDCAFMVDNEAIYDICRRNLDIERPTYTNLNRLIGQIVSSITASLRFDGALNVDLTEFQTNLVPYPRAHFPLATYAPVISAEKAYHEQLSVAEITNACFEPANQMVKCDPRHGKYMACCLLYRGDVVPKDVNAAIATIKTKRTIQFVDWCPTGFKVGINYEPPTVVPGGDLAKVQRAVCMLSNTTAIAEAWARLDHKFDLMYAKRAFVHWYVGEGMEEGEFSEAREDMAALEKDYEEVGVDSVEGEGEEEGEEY
SMILES,GI50 (HL-60 (TB)) [µM],CC50 (HL-60 (TB)) [µM],GI50 (SR) [µM],CC50 (SR) [µM],GI50 (NCI-H23) [µM],CC50 (NCI-H23) [µM],GI50 (HCC-2998) [µM],CC50 (HCC-2998) [µM],GI50 (SF-295) [µM],CC50 (SF-295) [µM],GI50 (T-47D) [µM],CC50 (T-47D) [µM],RFU in tubulin polymerization assay (porcine brain tubulin) [arbitrary units],tubulin inhibition (porcine brain tubulin),GI50 [1] [µM]
"O=C(N/N=C/c1ccc[nH]1)c1[nH]c2ccc(Br)cc2c1-c1ccccc1 [Derivative 3a, (E)-N′-((1H-Pyrrol-2-yl)methylene)-5-bromo-3-phenyl-1H-indole-2-carbohydrazide]",0.242,> 100,0.16,> 100,0.504,37.7,0.415,19.5,0.224,23.2,0.341,51.3,~55,,
"O=C(N/N=C/c1cc[nH]c1)c1[nH]c2ccc(Br)cc2c1-c1ccccc1 [Derivative 3b, (E)-N′-((1H-Pyrrol-3-yl)methylene)-5-bromo-3-phenyl-1H-indole-2-carbohydrazide]",0.598,> 100,,,1.87,33.9,1.55,32.7,1.94,33.8,3.49,> 100,,weak tubulin inhibitors,
"Cc1cc(C)c(/C=N/NC(=O)c2[nH]c3ccc(Br)cc3c2-c2ccccc2)[nH]1 [Derivative 3c, (E)-5-Bromo-N′-((3,5-dimethyl-1H-pyrrol-2-yl)methylene)-3-phenyl-1H-2-carbohydrazide]",2.4,> 100,,,2.59,35.2,3.55,37.2,2.76,29.5,4.68,77.6,,,1.77 to 8.25
"Cn1cccc1/C=N/NC(=O)c1[nH]c2ccc(Br)cc2c1-c1ccccc1 [Derivative 3d, (E)-5-Bromo-N′-((1-methyl-1H-pyrrol-2-yl)methylene)-3-phenyl-1H-indole-2-carbohydrazide]",0.317,> 100,,,0.447,> 100,0.402,> 100,0.321,> 100,0.344,> 100,,weak tubulin inhibitors,
"O=C(N/N=C/c1cc(Br)c[nH]1)c1[nH]c2ccc(Br)cc2c1-c1ccccc1 [Derivative 3e, (E)-5-Bromo-N′-((4-bromo-1H-pyrrol-2-yl)methylene)-3-phenyl-1H-indole-2-carbohydrazide]",0.327,> 100,,,0.298,26.9,0.296,15.6,0.254,25.9,1.4,82.5,~50,,
"O=C(N/N=C/c1[nH]ccc1Cl)c1[nH]c2ccc(Br)cc2c1-c1ccccc1 [Derivative 3g, (E)-5-Bromo-N′-((3-chloro-1H-pyrrol-2-yl)methylene)-3-phenyl-1H-indole-2-carbohydrazide]",0.891,> 100,,,0.884,34.4,1.23,28.6,0.501,26,2.5,81.9,,weak tubulin inhibitors,
"CCOC(=O)c1ccc(/C=N/NC(=O)c2[nH]c3ccc(Br)cc3c2-c2ccccc2)[nH]1 [Derivative 3i, Ethyl (E)-5-((2-(5-bromo-3-phenyl-1H-indole-2-carbonyl)hydrazono)methyl)-1H-pyrrole-2-carboxylate]",1.84,> 100,,,2.59,43.2,2.51,36.4,1.8,38.1,4.2,> 100,,,
"CCOC(=O)c1c[nH]c(/C=N/NC(=O)c2[nH]c3ccc(Br)cc3c2-c2ccccc2)c1 [Derivative 3j, Ethyl (E)-5-((2-(5-bromo-3-phenyl-1H-indole-2-carbonyl)hydrazono)methyl)-1H-pyrrole-3-carboxylate]",1.5,9.88,0.948,> 100,3.06,46.4,2.18,15.9,2.34,24.4,2.91,86.9,,,
"O=C(N/N=C/c1ccc(C(=O)N2CCOCC2)[nH]1)c1[nH]c2ccc(Br)cc2c1-c1ccccc1 [Derivative 3n, (E)-5-Bromo-N′-((5-(morpholine-4-carbonyl)-1H-pyrrol-2-yl)methylene)-3-phenyl-1H-indole-2-carbohydrazide]",1.84,8.56,0.405,38.9,2.83,69.8,2.31,42.9,1.63,31,3.1,> 100,,,
"O=C(N/N=C/c1ccc([N+](=O)[O-])[nH]1)c1[nH]c2ccc(Br)cc2c1-c1ccccc1 [Derivative 3p, (E)-5-Bromo-N′-((5-nitro-1H-pyrrol-2-yl)methylene)-3-phenyl-1H-indole-2-carbohydrazide]",0.374,> 100,0.354,> 100,1.45,35.4,1.67,19.6,0.413,29.9,2.4,59.6,~50,,
"O=C(N/N=C/c1cc([N+](=O)[O-])c[nH]1)c1[nH]c2ccc(Br)cc2c1-c1ccccc1 [Derivative 3q, (E)-5-Bromo-N′-((4-nitro-1H-pyrrol-2-yl)methylene)-3-phenyl-1H-indole-2-carbohydrazide]",0.633,> 100,0.405,> 100,2.57,> 100,3.66,> 100,0.623,> 100,2.21,> 100,,no tubulin inhibition properties,
"Cc1[nH]c(/C=N/NC(=O)c2[nH]c3ccc(Br)cc3c2-c2ccccc2)c(C)c1[N+](=O)[O-] [Derivative 3r, (E)-5-Bromo-N′-((3,5-dimethyl-4-nitro-1H-pyrrol-2-yl)methylene)-3-phenyl-1H-indole-2-carbohydrazide]",2.31,> 100,2.04,> 100,2.46,26.3,2.41,25.4,2.32,21.2,2.51,33.5,,,
"CCc1ccc(/C=N/NC(=O)c2[nH]c3ccc(Br)cc3c2-c2ccccc2)[nH]1 [Derivative 3s, (E)-5-Bromo-N′-((5-ethyl-1H-pyrrol-2-yl)methylene)-3-phenyl-1H-indole-2-carbohydrazide]",0.235,> 100,0.419,> 100,0.484,42.6,1.45,35.1,0.246,31.9,0.681,52.7,~55,,
"CCc1c[nH]c(/C=N/NC(=O)c2[nH]c3ccc(Br)cc3c2-c2ccccc2)c1 [Derivative 3t, (E)-5-Bromo-N′-((4-ethyl-1H-pyrrol-2-yl)methylene)-3-phenyl-1H-indole-2-carbohydrazide]",0.237,91.9,0.446,> 100,0.408,37.4,0.342,30.4,0.319,24.7,1.59,39.3,~55,,
"CCc1cc[nH]c1/C=N/NC(=O)c1[nH]c2ccc(Br)cc2c1-c1ccccc1 [Derivative 3u, (E)-5-Bromo-N′-((3-ethyl-1H-pyrrol-2-yl)methylene)-3-phenyl-1H-indole-2-carbohydrazide]",2.03,24.3,2.02,> 100,2.66,38.3,4.11,42.4,2.29,37.1,2.17,41.9,,weak tubulin inhibitors,
"CCOC(=O)c1cc(/C=N/NC(=O)c2[nH]c3ccc(Br)cc3c2-c2ccccc2)c[nH]1 [Derivative 3v, Ethyl (E)-4-((2-(5-bromo-3-phenyl-1H-indole-2-carbonyl)hydrazono)methyl)-1H-pyrrole-2-carboxylate]",4.68,> 100,,,3.42,40.4,4.17,42.1,3.04,37.2,5.88,> 100,,,
